Results on 24 molecules are retold here after US11773078B2, “Furin inhibitors” (Glaxosmithkline Intellectual Property Development Limited, priority 2018, dated 2023).

The target of test [1] is T1, Furin (108-574-Tev-Flag-His) enzyme (Homo sapiens, UniProt P09958).
T1 construct: Furin (108-574-Tev-Flag-His) enzyme was expressed and purified from CHO cells; TEV cleavage site (C); FLAG (C); His (C); made in house; host or cells: CHO cells
Put plainly: Furin enzyme assay. It is filed as biochemical. In short, it runs like this:
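Compounds ran as 11-point threefold dilutions (0.00017–10 μM final) against 40 pM furin, purified from CHO cells, for 2 h at room temperature. Buffer: 100 mM HEPES pH7.5 with 1 mM CaCl2 and 0.005% Triton X-100. Envision readout. Four-parameter curve gives pXC50.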

The target in test [2] is T2, furin (endogenous protease) in U20S cells (Homo sapiens, UniProt P09958).
T2 construct: the endogenous protease cleaves GFP; endogenous in cells; host or cells: U2OS cells transduced with a BacMam reporter
Kind of test: Furin cell-based assay (image-based, Golgi-targeted GFP with BMP10 furin/PCSK cleavage site).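 Also: Read-out is mean GFP fluorescence of Golgi puncta per cell by high-content imaging, retained when furin inhibited, over an eleven-point 0.00017–10 µM series, four-parameter fit.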 The conditions noted are these: 24-hour incubation, read-out: furin golgi cell pXC50 (converted).

Structures are written as SMILES.

T2 sequence (P09958 108-794): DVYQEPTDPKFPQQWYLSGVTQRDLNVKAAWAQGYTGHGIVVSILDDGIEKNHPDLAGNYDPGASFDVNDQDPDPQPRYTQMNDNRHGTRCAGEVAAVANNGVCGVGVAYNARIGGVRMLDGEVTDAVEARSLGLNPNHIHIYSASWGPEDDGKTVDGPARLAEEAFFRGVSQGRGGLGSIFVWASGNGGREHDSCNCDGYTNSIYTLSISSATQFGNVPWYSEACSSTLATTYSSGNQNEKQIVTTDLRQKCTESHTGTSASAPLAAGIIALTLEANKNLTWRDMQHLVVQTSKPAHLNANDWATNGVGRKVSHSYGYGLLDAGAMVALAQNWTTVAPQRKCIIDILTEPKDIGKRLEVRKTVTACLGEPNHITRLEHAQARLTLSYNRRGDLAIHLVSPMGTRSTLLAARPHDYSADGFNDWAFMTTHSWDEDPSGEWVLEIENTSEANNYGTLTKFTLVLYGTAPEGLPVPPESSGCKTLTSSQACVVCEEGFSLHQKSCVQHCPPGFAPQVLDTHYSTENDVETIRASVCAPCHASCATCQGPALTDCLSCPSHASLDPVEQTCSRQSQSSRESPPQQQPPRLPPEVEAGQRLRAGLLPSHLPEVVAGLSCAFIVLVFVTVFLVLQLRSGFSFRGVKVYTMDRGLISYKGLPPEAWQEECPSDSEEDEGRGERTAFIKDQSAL
T1 sequence (P09958 108-574): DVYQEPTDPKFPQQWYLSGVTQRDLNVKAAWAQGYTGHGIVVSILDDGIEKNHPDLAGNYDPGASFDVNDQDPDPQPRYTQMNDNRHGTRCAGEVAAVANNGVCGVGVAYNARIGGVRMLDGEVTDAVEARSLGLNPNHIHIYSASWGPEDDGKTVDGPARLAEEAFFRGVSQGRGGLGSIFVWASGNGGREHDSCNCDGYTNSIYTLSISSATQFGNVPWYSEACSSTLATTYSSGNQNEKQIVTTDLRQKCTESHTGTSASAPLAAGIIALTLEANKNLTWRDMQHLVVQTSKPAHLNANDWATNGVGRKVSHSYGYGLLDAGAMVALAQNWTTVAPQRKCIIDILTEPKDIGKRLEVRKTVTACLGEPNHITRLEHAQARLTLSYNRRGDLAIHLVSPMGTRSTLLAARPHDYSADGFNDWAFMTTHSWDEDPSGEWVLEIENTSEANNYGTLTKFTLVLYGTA

Take `CC(=O)NCC1CCN(Cc2cc(Oc3cnc(N4CCC(N)CC4)nc3)nc(-c3cc(Cl)cc(Cl)c3)c2)CC1` [Example 119, N-((1-((2-((2-(4-aminopiperidin-1-yl)pyrimidin-5-yl)oxy)-6-(3,5-dichlorophenyl)pyridin-4-yl)methyl)piperidin-4-yl)methyl)acetamide]: the “furin enzyme pIC50” value in test [1] turned out to be 9.3. Besides, the EC50 in test [2] was 25.1 nM.

As to `C[N+](C)([O-])CCC1CCN(Cc2cc(Oc3ccc(N4CCNCC4)nc3)nc(-c3cc(Cl)cc(Cl)c3)c2)CC1` [Example 120, 2-(1-((2-(3,5-dichlorophenyl)-6-((6-(piperazin-1-yl)pyridin-3-yl)oxy)pyridin-4-yl)methyl)piperidin-4-yl)-N,N-dimethylethanamine oxide], the IC50 in test [1] (read-out: furin enzyme pIC50 (converted)) is 2 nM. Further, the EC50 in test [2] is 15.8 nM.

Regarding `CC(=O)NCC1CCN(Cc2cc(Oc3cnc(N4CCNCC4)c(F)c3)nc(-c3cc(Cl)cc(Cl)c3)c2)CC1` [Example 121, N-((1-((2-(3,5-dichlorophenyl)-6-((5-fluoro-6-(piperazin-1-yl)pyridin-3-yl)oxy)pyridin-4-yl)methyl)piperidin-4-yl)methyl)acetamide], the “furin enzyme pIC50” value in test [1] worked out at 8.6. Also, the EC50 in test [2] was 31.6 nM.

With `O=C(O)COC1CCN(Cc2cc(Oc3cnc(N4CCNCC4)nc3)nc(-c3cc(Cl)cc(Cl)c3)c2)CC1` [Example 122], the “furin enzyme pIC50” value in test [1] came out at 8.5. Moreover, in test [2], the EC50 is 79.4 nM.

Regarding `O=C(O)CC1CCN(Cc2cc(Oc3cnc(N4CCNCC(O)C4)nc3)nc(-c3cc(Cl)cc(Cl)c3)c2)CC1` (stereo not drawn) [Example 123, 2-(1-((2-(3,5-dichlorophenyl)-6-((2-(6-hydroxy-1,4-diazepan-1-yl)pyrimidin-5-yl)oxy)pyridin-4-yl)methyl)piperidin-4-yl)acetic acid], in test [1], the “furin enzyme pIC50” value stood at 8.7. The EC50 in test [2] is 100 nM.

`NC1(CCO)CCN(c2ncc(Oc3cc(CN4CCC(CC(=O)O)CC4)cc(-c4cc(Cl)cc(Cl)c4)n3)cn2)CC1` [Example 124, 2-(1-((2-((2-(4-amino-4-(2-hydroxyethyl)piperidin-1-yl)pyrimidin-5-yl)oxy)-6-(3,5-dichlorophenyl)pyridin-4-yl)methyl)piperidin-4-yl)acetic acid]: the “furin enzyme pIC50” value in test [1] turned out to be 8.8. Besides, the EC50 in test [2] was 20 nM.

In the case of `CP(C)(=O)CC1CCN(Cc2cc(Oc3cnc(N4CCNCC4)nc3)nc(-c3cc(Cl)cc(Cl)c3)c2)CC1` [Example 125], the “furin enzyme pIC50” value in test [1] is reported as 8. Further, in test [2], the EC50 is 50.1 nM.

For `CC(CC(=O)O)C1CN(Cc2cc(Oc3cnc(N4CCN(C)CC4)nc3)nc(-c3cc(Cl)cc(Cl)c3)c2)C1` (stereo not drawn) [Example 127, 3-(1-((2-(3,5-dichlorophenyl)-6-((2-(4-methylpiperazin-1-yl)pyrimidin-5-yl)oxy)pyridin-4-yl)methyl)azetidin-3-yl)butanoic acid], in test [1], the “furin enzyme pIC50” value turned out to be 8.8. Besides, the EC50 in test [2] was 501 nM.

`CN1CCN(c2ncc(Oc3cc(CN4CCC(OCC(=O)O)C4)cc(-c4cc(Cl)cc(Cl)c4)n3)cn2)CC1` (stereo not drawn) [Example 128, 2-((1-((2-(3,5-dichlorophenyl)-6-((2-(4-methylpiperazin-1-yl)pyrimidin-5-yl)oxy)pyridin-4-yl)methyl)pyrrolidin-3-yl)oxy)acetic acid]: the “furin enzyme pIC50” value in test [1] was 7.9. In addition, in test [2], the EC50 is 631 nM.

As to `CN1CCN(c2ncc(Oc3cc(CN4CC5CC(CC(=O)O)CC5C4)cc(-c4cc(Cl)cc(Cl)c4)n3)cn2)CC1` (stereo not drawn) [Example 129, 2-(2-((2-(3,5-dichlorophenyl)-6-((2-(4-methylpiperazin-1-yl)pyrimidin-5-yl)oxy)pyridin-4-yl)methyl)octahydrocyclopenta[c]pyrrol-5-yl)acetic acid], the “furin enzyme pIC50” value in test [1] amounted to 8.2. Besides, the EC50 in test [2] was 79.4 nM.

On to `CN1CCN(c2ncc(Oc3cc(CN4CCC(CCC(=O)O)CC4)cc(-c4cc(Cl)cc(Cl)c4)n3)cn2)CC1` [Example 130, 3-(1-((2-(3,5-dichlorophenyl)-6-((2-(4-methylpiperazin-1-yl)pyrimidin-5-yl)oxy)pyridin-4-yl)methyl)piperidin-4-yl)propanoic acid], for which, in test [1], the “furin enzyme pIC50” value is reported as 8.7. In addition, the EC50 in test [2] is 7.94 nM.

Consider `CC(CC1CCN(Cc2cc(Oc3cnc(N4CCN(C)CC4)nc3)nc(-c3cc(Cl)cc(Cl)c3)c2)CC1)C(=O)O` (stereo not drawn) [Example 131, 3-(1-((2-(3,5-dichlorophenyl)-6-((2-(4-methylpiperazin-1-yl)pyrimidin-5-yl)oxy)pyridin-4-yl)methyl)piperidin-4-yl)-2-methylpropanoic acid], for which, in test [1], the “furin enzyme pIC50” value is 8.7. The EC50 in test [2] is 31.6 nM.

Consider `O=C(O)CC1CCN(Cc2cc(Oc3cnc(N4CCCNCC4)nc3)nc(-c3cc(Cl)cc(Cl)c3)c2)CC1` [Example 132, 2-(1-((2-((2-(1,4-diazepan-1-yl)pyrimidin-5-yl)oxy)-6-(3,5-dichlorophenyl)pyridin-4-yl)methyl)piperidin-4-yl)acetic acid], for which the “furin enzyme pIC50” value in test [1] is given as 8.8. Moreover, the EC50 in test [2] was 63.1 nM.

For `CN1CC2CN(c3ncc(Oc4cc(CN5CCC(CC(=O)O)CC5)cc(-c5cc(Cl)cc(Cl)c5)n4)cn3)CC2C1` (stereo not drawn) [Example 133, 2-(1-((2-(3,5-dichlorophenyl)-6-((2-(5-methylhexahydropyrrolo[3,4-c]pyrrol-2(1H)-yl)pyrimidin-5-yl)oxy)pyridin-4-yl)methyl)piperidin-4-yl)acetic acid], the “furin enzyme pIC50” value in test [1] was found to be 8.3. For the same molecule, in test [2], the EC50 was 39.8 nM.

Turning to `C[C@@H](CC1CCN(Cc2cc(Oc3cnc(N4CCN(C)CC4)nc3)nc(-c3cc(Cl)cc(Cl)c3)c2)CC1)C(=O)O` [Example 134], in test [1], the “furin enzyme pIC50” value was 9.5. Further, the EC50 in test [2] was 25.1 nM.

With `CN1CCN(c2ncc(Oc3cc(CN4CCC5(CC4)CN(C(=O)CO)C5)cc(-c4cc(Cl)cc(Cl)c4)n3)cn2)CC1` [Example 135, 1-(7-((2-(3,5-dichlorophenyl)-6-((2-(4-methylpiperazin-1-yl)pyrimidin-5-yl)oxy)pyridin-4-yl)methyl)-2,7-diazaspiro[3.5]nonan-2-yl)-2-hydroxyethanone], in test [1], the “furin enzyme pIC50” value is listed as 9.2. In test [2], the EC50 was 10 nM.

With `CN1CCN(c2ccc(Oc3cc(CN4CC[C@@H]5[C@H](CC4)[C@H]5C(=O)O)cc(-c4cc(Cl)cc(Cl)c4)n3)cn2)CC1` [Example 136, (1R,7S,8r)-4-((2-(3,5-dichlorophenyl)-6-((6-(4-methylpiperazin-1-yl)pyridin-3-yl)oxy)pyridin-4-yl)methyl)-4-azabicyclo[5.1.0]octane-8-carboxylic acid], the “furin enzyme pIC50” value in test [1] turned out to be 9.8. For the same molecule, the EC50 in test [2] is 15.8 nM.

Take `CC(O)CC1CCN(Cc2cc(Oc3cnc(N4CCN(C)CC4)nc3)nc(-c3cc(Cl)cc(Cl)c3)c2)CC1` (stereo not drawn) [Example 138, 1-(1-((2-(3,5-dichlorophenyl)-6-((2-(4-methylpiperazin-1-yl)pyrimidin-5-yl)oxy)pyridin-4-yl)methyl)piperidin-4-yl)propan-2-ol]: the “furin enzyme pIC50” value in test [1] is on record as 9.1. In addition, the EC50 in test [2] was 7.94 nM.

For the molecule `CN1CCN(c2ncc(Oc3cc(CN4CCC(CC(O)C(=O)O)CC4)cc(-c4cc(Cl)cc(Cl)c4)n3)cn2)CC1` (stereo not drawn) [Example 139, 3-(1-((2-(3,5-dichlorophenyl)-6-((2-(4-methylpiperazin-1-yl)pyrimidin-5-yl)oxy)pyridin-4-yl)methyl)piperidin-4-yl)-2-hydroxypropanoic acid], in test [1], the “furin enzyme pIC50” value is 9.3. The EC50 in test [2] is 10 nM.

As for `CN1CCCN(c2ncc(Oc3cc(CN4CCC(OCC(=O)O)CC4)cc(-c4cc(Cl)cc(Cl)c4)n3)cn2)CC1` [Example 140, 2-((1-((2-(3,5-dichlorophenyl)-6-((2-(4-methyl-1,4-diazepan-1-yl)pyrimidin-5-yl)oxy)pyridin-4-yl)methyl)piperidin-4-yl)oxy)acetic acid], in test [1], the “furin enzyme pIC50” value is given as 8.8. Also, the EC50 in test [2] was 7.94 nM.

On to `CN1CCN(c2ccc(Oc3cc(CN4CCC5(CC4)CNC(=O)OC5)cc(-c4cc(Cl)cc(Cl)c4)n3)cn2)CC1` [Example 141, 9-((2-(3,5-dichlorophenyl)-6-((6-(4-methylpiperazin-1-yl)pyridin-3-yl)oxy)pyridin-4-yl)methyl)-2-oxa-4,9-diazaspiro[5.5]undecan-3-one], for which the “furin enzyme pIC50” value in test [1] is recorded as 8.6. For the same molecule, the EC50 in test [2] was 5.01 nM.

For `CN1CCN(c2ncc(Oc3cc(CN4CCC(CC(N)=O)CC4)cc(-c4cc(Cl)cc(Cl)c4)n3)cn2)CC1` [Example 142, 2-(1-((2-(3,5-dichlorophenyl)-6-((2-(4-methylpiperazin-1-yl)pyrimidin-5-yl)oxy)pyridin-4-yl)methyl)piperidin-4-yl)acetamide], the “furin enzyme pIC50” value in test [1] is on record as 8.8. Besides, the EC50 in test [2] is 6.31 nM.

On to `CN1CCN(c2ncc(Oc3cc(CN4CCC(OC5(C(=O)O)CC5)CC4)cc(-c4cc(Cl)cc(Cl)c4)n3)cn2)CC1` [Example 143, 1-((1-((2-(3,5-dichlorophenyl)-6-((2-(4-methylpiperazin-1-yl)pyrimidin-5-yl)oxy)pyridin-4-yl)methyl)piperidin-4-yl)oxy)cyclopropanecarboxylic acid], for which the “furin enzyme pIC50” value in test [1] was 8.4. Also, the EC50 in test [2] is 20 nM.

For the molecule `COC1CN(C)CCN(c2ncc(Oc3cc(CN4CCC(CC(=O)O)CC4)cc(-c4cc(Cl)cc(Cl)c4)n3)cn2)C1` (stereo not drawn) [Example 144, 2-(1-((2-(3,5-dichlorophenyl)-6-((2-(6-methoxy-4-methyl-1,4-diazepan-1-yl)pyrimidin-5-yl)oxy)pyridin-4-yl)methyl)piperidin-4-yl)acetic acid], in test [1], the “furin enzyme pIC50” value amounted to 8.5. Besides, the EC50 in test [2] was 7.94 nM.
